Results published in patent publication US10307409B2, “Muscarinic combinations and their use for combating hypocholinergic disorders of the central nervous system” (Chase Pharmaceuticals Corporation, priority 2015, dated 2019).

How the values were obtained:
primate = primate study, domperidone administered with BuTAC; cited from earlier work
[1] = clinical trials, Alzheimer disease; cited from earlier work
Male Swiss mice [2] = assay: T-maze continuous alternation task (T-CAT) with oxybutynin and xanomeline; assay type: in vivo; settings: i.p. oxybutynin pretreatment 30 min before xanomeline
From the text: The T-maze continuous alternation task (T-CAT) is useful as model for studying compounds with cognitive enhancing properties. The T-maze consists of 2 choice arms and 1 start arm mounted to a square center. Manual doors are provided to close specific arms during the force choice alternation task.
Male Swiss mice (4-6 weeks old), N=10 per treatment group were used, and were pretreated with: • Oxybutynin at the dose that blocked fecal pellet excretion in Study 2 of Example 1.
Mice were randomly assigned to one of the different experimental treatment groups. Each animal was identified by its group name, cage number, series (day) of experiment, and number (1 to 10) written with permanent ink on the tail.
The T-maze apparatus is made of gray Plexiglas with a main stem (55 cm long×10 cm wide×20 cm high) and two arms (30 cm long×10 cm wide×20 cm high) positioned at 90 degree angle relative to the main stem. A start box (15 cm long×10 cm wide) is separated from the main stem by a guillotine door. […]
The percentage of alternation over the 14 free-choice trials was determined for each mouse and was used as an index of working memory performance. […]
Analysis of variance (ANOVA) was performed on the results. […] The drug-induced improvement of memory was calculated by setting the respective response of the saline/vehicle as 100% and that of the test group as 0% reversion. […]

Male Swiss mice [3] = assay: Antagonism of xanomeline-induced diarrhea in mice by oxybutynin (fecal pellet count); assay type: in vivo; settings: i.p. oxybutynin 0.3 to 30 mg/kg, 30 min before xanomeline 30 mg/kg
Procedure: Male Swiss mice (4-6 weeks old), N=10 per treatment group were used. Animals were pretreated with i.p. oxybutynin (a representative peripheral muscarinic receptor antagonist) or vehicle; 30 minutes later animals were treated with xanomeline at a dose of 30 mg/kg that caused diarrhea (as determined in Experiment 1). The dose of oxybutynin ordinarily ranged from 0.3 to 30 mg/kg.
Mice were placed individually in cages without any bedding materials. During the experiment the number of fecal pellets was counted at different time-points as outlined below: • T−1 h to T0: counting of the accumulated fecal pellets excreted. • T0: administration of oxybutinin. • T30 min: administration of vehicle or xanomeline. • T 30 min to T 2.5 h: counting of accumulated fecal pellets excreted. • T+2.5 h to T+4.5 h: counting of accumulated fecal pellets excreted.
(§1) The total number of fecal pellets for each mouse was counted over time. An analysis of variance (ANOVA) was performed on the results. Fisher's Protected Least Significant Difference was used for pairwise comparisons. The p value ≤0.05 were considered significant. Grubbs' test (http//www atgraphpad.com/quickcalcs/Grubbs1.cfm) was used to detect outliers for each parameter in each experimental group.

[4] = transdermal [14C]oxybutynin, rats; cited from earlier work
[5] = test system: patients with Alzheimer disease; settings: cited from earlier work
[6] = clinical study, Sramek 1995; cited from earlier work
Male Swiss mice [7] = assay: Dose-response to xanomeline in a mouse model of diarrhea (fecal pellet count); assay type: in vivo; settings: xanomeline i.p. 0.3 to 30 mg/kg
From the text: Male Swiss mice (4-6 weeks old), N=10 per treatment group were used, and treated intra-peritoneally (i.p.) with either vehicle (vehicle group) or increasing doses of xanomeline, a representative muscarinic agonist. Mice were randomly assigned to one of two experimental groups (vehicle; or increasing doses of xanomeline). Each animal was identified by its group name, cage number, series (day) of experiment, and number (1 to 10) written with permanent ink on the tail.
Mice were placed individually in cages without any bedding materials. During the experiment the number of fecal pellets were counted at different time-points, starting one hour before the time of the administration of the test compound (T0), as outlined below: • T−1 h to T0: counting of the accumulated fecal pellets excreted. • T0: administration of the test compound, • T0 to T+2 h: counting of the accumulated fecal pellets excreted. • T+2 h to T+4 h: counting of the accumulated fecal pellets excreted.
as §1, with “comparisons;” for “comparisons. The”, “values” for “value”, “(http://www.graphpad.com/quickcs/Grubbs1.cfm)” for “(http//www atgraphpad.com/quickcalcs/Grubbs1.cfm)”

[8] = test system: patients with Alzheimer disease; assay: Xanomeline 6-month double-blind, placebo-controlled, parallel group trial in Alzheimer disease patients; assay type: in vivo, human; settings: in view of Mirza 2003; i.e. 225 mg/day
From the text: A close analog of tazomeline, the 3-(4-hexyloxy-1,2,5-thiadiazol-3-yl)-1-methyl-5,6-dihydro-2H-pyridine known as xanomeline and described in U.S. Pat. No. 5,043,345, the disclosure of which is incorporated herein by reference in its entirety, has been disclosed as a muscarinic acetylcholine receptor agonist with reasonable selectivity for the M1 and M4 subtypes. The efficacy of xanomeline, which stimulates muscarinic receptors in the brain and in the periphery was studied in patients with Alzheimer disease in a 6-month double-blind, placebo-controlled, parallel group trial. […] Such side effects prevented the use of doses of xanomeline that could achieve maximum anti-dementia efficacy and reflect stimulation of cholinergic receptors outside the brain.
Dose-limiting adverse events attending the use of drugs that stimulate cholinergic transmission, such as xanomeline, appear to primarily reflect the excessive stimulation of peripheral cholinergic receptors, especially those of the muscarinic type (mAChRs), such that in both healthy volunteers and Alzheimer's patients many of these side effects have been reported for xanomeline; in the patient population this led to a discontinuation rate higher than 50% while the effects on cognition were not robust and mainly seen at the highest doses tested (Mirza2003).

## O=c1[nH]c2ccccc2n1CCCN1CCC(n2c(=O)[nH]c3cc(Cl)ccc32)CC1 [domperidone, 5-chloro-1-(1-[3-(2-oxo-2,3-dihydro-1H-benzo[d]imidazol-1-yl)propyl]piperidin-4-yl)-1H-benzo[d]imidazol-2(3H)-one]
primate
  effect on BuTAC-induced vomiting: mitigated

## CO/N=C/C1=CCCN(C)C1 [milameline, (E)-N-methoxy-1-(1-methyl-1,2,5,6-tetrahydropyridin-3-yl)methanimine]
[1]
  maximum tolerated dose: 2 mg four times per day

## CCN(CC)CC#CCOC(=O)C(O)(c1ccccc1)C1CCCCC1 (stereo not drawn) [oxybutynin, 4-diethylaminobut-2-ynyl 2-cyclohexyl-2-hydroxy-2-phenylethanoate]
Male Swiss mice [2]
  ability to perform the T-maze test after oxybutynin pretreatment: restored the animals' ability to perform the T-maze test
Male Swiss mice [3]
  antagonism of xanomeline-induced diarrhea: dose-dependently antagonized the diarrhea induced by xanomeline
[4]
  brain penetration of radiolabel: presence of radiolabel in the brain

## CCCCCCOc1nsnc1C1=CCCN(C)C1 [xanomeline, 3-(4-hexyloxy-1,2,5-thiadiazol-3-yl)-1-methyl-5,6-dihydro-2H-pyridine]
[5]; 75 mg xanomeline orally three times daily, 6-month study, mainly adverse events, predominantly gastrointestinal
  patients who discontinued treatment: 59%
[5]; 6-month trial (Bodick 1997; Shekhar 2008)
  cognitive and behavioral symptoms of Alzheimer disease compared to placebo: significantly improve cognitive and behavioral symptoms
[5]; 6-month trial
  side effects (bradycardia, gastro-intestinal distress, excessive salivation, sweating): dose-dependent unacceptable side effects
[5]; Alzheimer's patients (Mirza 2003)
  discontinuation rate in the patient population: higher than 50%
[6]
  MTD: 100 mg three times a day
Male Swiss mice [7]
  diarrhea (fecal pellets excreted): dose-dependently causes diarrhea
[8]
  maximum tolerated dose as considered in the context of the present invention: 75 mg three times per day
